Source: EP0170623B1, “Novel pharmaceutical use of (NVA)2-cyclosporine” (SANDOZ AG, priority 1984, dated 1990)

Tested on: Experimental Autoimmune Uveitis (EAV)
Details: 25 to 50 mg/kg/day i.m. on 7 consecutive days commencing 7 days after immunization with bovine S antigen; histopathology on day 14; compared with olive oil control groups

Substance: (Nva)^2-Cyclosporine
- number of animals evidencing EAV: substantial reduction
